# In patent US20100028889A1, “COMPANION DIAGNOSTIC ASSAYS FOR CANCER THERAPY” (ABBOTT LABORATORIES, priority 2006, published 2010):
# Where two headings read alike, the source gives them in different places.
# Key:
# K562 = assay: cell cytotoxicity EC50, CellTiter Glo, leukemia/lymphoma cell line; assay type: cell-based, human
# Protocol: (§1) The SCLC and leukemia/lymphoma cell lines listed below were obtained from the American Type Culture Collection (Manassas, Va.), Deutsche Sammlung von Mikroorganismen und Zellkulturen (DSMZ, Braunsweig, Germany), or were the generous gift from Dr. Louis Staudt (National Cancer Institute) and were cultured as described in Tse, C., Shoemaker, A. R., Adickes, J., et al., “ABT-263: a potent and orally bioavailable Bcl-2 family inhibitor,” Cancer Res 2008; 68: 3421-3428; and Tahir, S. K., Yang, X., Anderson, M. G., et al., “Influence of Bcl-2 family members on the cellular response of small-cell lung cancer cell lines to ABT-737,” Cancer Res 2007; 67: 1176-1183.
# (§2) Cells were treated at 10,000 or 50,000 cells per well for adherent or suspension cells, respectively, in 96-well microtiter plates in the presence of 10% human serum for 48 hours with or without ABT-263, in a humidified chamber with 5% CO2. ABT-263 was synthesized as previously described in Tse, C., Shoemaker, A. R., Adickes, J., et al., “ABT-263: a potent and orally bioavailable Bcl-2 family inhibitor,” Cancer Res 2008; 68: 3421-3428; and Oltersdorf, T., Elmore, S. W., Shoemaker, A. R., et al., “An inhibitor of Bcl-2 family proteins induces regression of solid tumours,” Nature 2005; 435: 677-681, and cell cytotoxicity EC50 values were assessed using CellTiter Glo (Promega, Madison Wis.).
# MOLT-4 = assay: as above; assay type: cell-based, human
# Protocol: as §1, §2
# MEG-01 = assay: as above; assay type: cell-based, human
# Protocol: as §1, §2
# Raji = assay: as above; assay type: cell-based, human
# Protocol: as §1, §2
# RPMI 8226 = assay: as above; assay type: cell-based, human
# Protocol: as §1, §2
# I9.2 = assay: as above; assay type: cell-based, human
# Protocol: as §1, §2
# MV-4-11 = assay: as above; assay type: cell-based, human
# Protocol: as §1, §2
# DOHH2 = assay: as above; assay type: cell-based, human; details: DOHH-2
# Protocol: as §1, §2
# SuDHL-4 = assay: as above; assay type: cell-based, human
# Protocol: as §1, §2
# SuPB15 = assay: as above; assay type: cell-based, human
# Protocol: as §1, §2
# Pfeiffer = assay: as above; assay type: cell-based, human
# Protocol: as §1, §2
# WSU-NHL = assay: as above; assay type: cell-based, human
# Protocol: as §1, §2
# CCRF-CEM = assay: as above; assay type: cell-based, human
# Protocol: as §1, §2
# CEM/C1 = assay: as above; assay type: cell-based, human
# Protocol: as §1, §2
# HL60 = assay: as above; assay type: cell-based, human
# Protocol: as §1, §2
# Rs11380 = assay: as above; assay type: cell-based, human
# Protocol: as §1, §2
# RS4; 11 = assay: as above; assay type: cell-based, human
# Protocol: as §1, §2
# Reh = assay: as above; assay type: cell-based, human
# Protocol: as §1, §2
# Jurkat = assay: as above; assay type: cell-based, human
# Protocol: as §1, §2
# U-937 = assay: as above; assay type: cell-based, human
# Protocol: as §1, §2
# CCRF-HSB2 = assay: as above; assay type: cell-based, human
# Protocol: as §1, §2
# KG1a = assay: as above; assay type: cell-based, human; details: KG-1a
# Protocol: as §1, §2
# Rec-1 = assay: cell cytotoxicity EC50, CellTiter Glo, Mantle Cell Lymphoma cell line, Rec-1 sub-clone batch listed second; assay type: cell-based, human
# Protocol: as §1, §2
# Granta = assay: cell cytotoxicity EC50, CellTiter Glo, Mantle Cell Lymphoma cell line; assay type: cell-based, human
# Protocol: as §1, §2
# JVM-2 = assay: as above; assay type: cell-based, human
# Protocol: as §1, §2
# HBL-2 = assay: as above; assay type: cell-based, human
# Protocol: as §1, §2
# SP53 = assay: as above; assay type: cell-based, human
# Protocol: as §1, §2
# solid tumors = details: in vivo; cited from earlier work
# [1] = 10% human serum, 48 hours, read-out: EC50
# [2] = Homo sapiens, read-out: Response Designation
smiles,measurement,setting,value
"CC1(C)CCC(c2ccc(Cl)cc2)=C(CN2CCN(c3ccc(C(=O)NS(=O)(=O)c4ccc(N[C@H](CCN5CCOCC5)CSc5ccccc5)c(S(=O)(=O)C(F)(F)F)c4)cc3)CC2)C1 [ABT-263, N-(4-(4-((2-(4-chlorophenyl)-5,5-dimethyl-1-cyclohex-1-en-1-yl)methyl)piperazin-1-yl)benzoyl)-4-(((1R)-3-(morpholin-4-yl)-1-((phenylsulfanyl)methyl)propyl)amino)-3-((trifluoromethyl)sulfonyl)benzenesulfonamide]",EC50,K562; [1],12.8 µM
same,EC50,K562; [2],> 4.8 µM
same,EC50,"MOLT-4; Homo sapiens, MOLT-4, read-out: Response Designation",≤ 4.8 µM
same,EC50,"MOLT-4; Molt-4, 10% human serum, 48 hours, read-out: EC50",0.385 µM
same,EC50,"MEG-01; Homo sapiens, MEG-01, read-out: Response Designation",> 4.8 µM
same,EC50,"MEG-01; Meg-01, 10% human serum, 48 hours, read-out: EC50",6.04 µM
same,EC50,Raji; [1],23.7 µM
same,EC50,Raji; [2],> 4.8 µM
same,EC50,RPMI 8226; [1],1.5 µM
same,EC50,RPMI 8226; [2],≤ 4.8 µM
same,EC50,I9.2; [1],1.8 µM
same,EC50,I9.2; [2],≤ 4.8 µM
same,EC50,"MV-4-11; Homo sapiens, MV4-11, read-out: Response Designation",≤ 4.8 µM
same,EC50,"MV-4-11; MV4-11, 10% human serum, 48 hours, read-out: EC50",0.028 µM
same,EC50,"DOHH2; DoHH2, 10% human serum, 48 hours, read-out: EC50",0.322 µM
same,EC50,"DOHH2; Homo sapiens, DOHH2, read-out: Response Designation",≤ 4.8 µM
same,EC50,"SuDHL-4; Homo sapiens, SU-DHL-4, read-out: Response Designation",≤ 4.8 µM
same,EC50,"SuDHL-4; SU-DHL-4, 10% human serum, 48 hours, read-out: EC50",1.04 µM
same,EC50,"SuPB15; Homo sapiens, SUP-B15, read-out: Response Designation",≤ 4.8 µM
same,EC50,"SuPB15; SUP-B15, 10% human serum, 48 hours, read-out: EC50",0.26 µM
same,EC50,Pfeiffer; [1],8.81 µM
same,EC50,Pfeiffer; [2],> 4.8 µM
same,EC50,WSU-NHL; [1],3.55 µM
same,EC50,WSU-NHL; [2],≤ 4.8 µM
same,EC50,CCRF-CEM; [1],0.765 µM
same,EC50,CCRF-CEM; [2],≤ 4.8 µM
same,EC50,CEM/C1; [1],0.063 µM
same,EC50,CEM/C1; [2],≤ 4.8 µM
same,EC50,"HL60; HL-60, 10% human serum, 48 hours, read-out: EC50",4.84 µM
same,EC50,"HL60; Homo sapiens, HL-60, read-out: Response Designation",≤ 4.8 µM
same,EC50,Rs11380; [1],0.145 µM
same,EC50,Rs11380; [2],≤ 4.8 µM
same,EC50,"RS4; 11; Homo sapiens, RS4;11, read-out: Response Designation",≤ 4.8 µM
same,EC50,"RS4; 11; RS4, 11, 10% human serum, 48 hours, read-out: EC50",0.095 µM
same,EC50,Reh; [1],0.434 µM
same,EC50,Reh; [2],≤ 4.8 µM
same,EC50,Jurkat; [1],3.35 µM
same,EC50,Jurkat; [2],≤ 4.8 µM
same,EC50,U-937; [1],33.9 µM
same,EC50,U-937; [2],> 4.8 µM
same,EC50,"CCRF-HSB2; CCRF-HSB-2, 10% human serum, 48 hours, read-out: EC50",1.15 µM
same,EC50,"CCRF-HSB2; Homo sapiens, CCRF-HSB-2, read-out: Response Designation",≤ 4.8 µM
same,EC50,KG1a; [2],≤ 4.8 µM
same,EC50,KG1a; [1],0.243 µM
same,EC50,"Rec-1; Homo sapiens, Rec1, read-out: Response Designation",≤ 4.8 µM
same,EC50,"Rec-1; Rec1, 10% human serum, 48 hours, read-out: EC50",0.698 µM
same,EC50,Granta; [1],0.041 µM
same,EC50,Granta; [2],≤ 4.8 µM
same,EC50,JVM-2; [1],4.11 µM
same,EC50,JVM-2; [2],≤ 4.8 µM
same,EC50,"HBL-2; HBL2, 10% human serum, 48 hours, read-out: EC50",0.031 µM
same,EC50,"HBL-2; Homo sapiens, HBL2, read-out: Response Designation",≤ 4.8 µM
same,EC50,SP53; [1],0.14 µM
same,EC50,SP53; [2],≤ 4.8 µM
"CN(C)CC[C@H](CSc1ccccc1)Nc1ccc(S(=O)(=O)NC(=O)c2ccc(N3CCN(Cc4ccccc4-c4ccc(Cl)cc4)CC3)cc2)cc1[N+](=O)[O-] [ABT-737, N-(4-(4-((4′-chloro(1,1′-biphenyl)-2-yl)methyl)piperazin-1-yl)benzoyl)-4-(((1R)-3-(dimethylamino)-1-((phenylsulfanyl)methyl)propyl)amino)-3-nitrobenzenesulfonamide]",effect on solid tumors,solid tumors,induce regression of solid tumors
